Several values for one entry are separate records, joined by “and”; a condition that tells them apart may be missing. Equal values may be shown once. Entries after “also recorded” stand apart in the source; their conditions may differ. Read-outs that look alike come from different tables or passages of the source.
Columns and labels:
HBV [1] = experiment: Antiviral studies using HepG2.2.15 cells (HBV DNA and HBV RNA readouts); assay type: cell-based, hepatitis B virus (GT D); conditions: for Effect on secreted HBV RNA, single drug: 6 days, increasing concentrations; for EC50: Hepatitis B virus
Experimental: (§1) In combination studies, cells were treated with compounds either alone or in combination after combining the compounds in a checkerboard format. In studies examining the effect of human serum, serially diluted NVR 3-778 was added into cell culture medium containing 0% to 40% human serum (BioreclamationIVT). Cells were incubated with the compounds for 3 days, after which the medium was removed, fresh medium containing the compounds was added to the cells, and the cells were incubated for another 3 days prior to harvesting of the supernatants or cells for antiviral assays. To quantify intracellular encapsidated rcDNA or encapsidated pgRNA, cells were first solubilized using lysis buffer containing 1% NP-40 and 10 mM CaCl2. The cytoplasmic fraction was then treated with S7 nuclease (6 units) to remove nonencapsidated nucleic acids, after which the S7 nuclease was inactivated by the addition of EDTA (0.5 M). […] The levels of HBV DNA were determined by a bDNA assay as described above (Affymetrix). Supernatants or cell lysates containing HBV RNA were treated with proteinase K (2.5 µg) at 50°C for 40 min, transferred to a capture plate containing HBV RNA probe sets, and hybridized overnight at 55°C. Captured HBV RNA was measured by the addition of a chemiluminescent substrate using a QuantiGene assay (Affymetrix). […] At day 6, the CellTiter-Glo reagent was added to the cells and viability was determined according to the manufacturer’s protocol (Promega). Luminescence signals were measured at 0.2 s using a Victor X4 multimode plate reader (PerkinElmer).

HepG2.2.15 cells = experiment: Cell viability of HepG2.2.15 cells (ATP levels, CellTiter-Glo); assay type: cell-based; conditions: NVR 3-778 up to 4 μM and LMV up to 1.5 μM, alone or in combination, 6 days
Experimental: as §1

[2] = tested on: HBV core protein variant I105V; experiment: Transient-transfection antiviral study in HepG2 cells, core variant I105V; assay type: cell-based, hepatitis B virus; conditions: for EC50 FC, I105V: ratio of mean EC50 for core variant over wild-type HBV
Experimental: Cells were cotransfected with the HBV plasmids (100 ng/well) and a Gaussia expression plasmid (10 ng/well) (Thermo Scientific) using the Lipofectamine LTX Plus transfection reagent (Life Technologies). Transfection mixtures were removed after overnight incubation, and cells were treated with serially diluted NVR 3-778 at a final dimethyl sulfoxide (DMSO) concentration of 0.5%. After 3 days of incubation with the compound, the supernatants were collected and secreted Gaussia luciferase was measured using a Gaussia Flash luciferase assay kit (Thermo Scientific). […] Samples were diluted into lysis buffer (Affymetrix) containing 2.5 µg proteinase K (Affymetrix) at 50°C for 40 min. Intracellular encapsidated HBV DNA was denatured for 30 min at 25°C in 0.2 M NaOH (Sigma) and incubated with HBV DNA probes designed to hybridize to the minus-strand HBV DNA (Affymetrix). The denatured DNA was subsequently detected using a QuantiGene assay kit, according to the branched DNA (bDNA) assay recommended by the manufacturer (Affymetrix).

HBV [3] = experiment: De novo infection study using PHH; assay type: cell-based; conditions: Hepatitis B virus
Experimental: Cryopreserved PHH (Life Technologies) were seeded at 40,000 cells/well 1 day before infection. The HBV inoculum, concentrated from the supernatants of HepG2.2.15 cells, was prepared at 200 genome equivalents/cell in PHH medium (DMEM containing 10% FBS and a supplement cocktail containing HEPES, L-proline, insulin epidermal growth factor, dexamethasone, and ascorbic acid-2-phosphate, as previously described) with 2% DMSO and 4% polyethylene glycol (PEG) 8000 (Sigma). Compounds were serially diluted in DMSO at 50-fold strength and added to PHH medium containing the HBV inoculum, prior to infecting the PHH. After overnight incubation, the infection mixtures were removed and the cells were replenished with PHH medium containing freshly diluted compounds. On day 5 and day 8 postinfection, the media containing the compounds were removed and the cells were replenished with PHH medium containing freshly diluted compounds. Supernatants and cells were harvested for antiviral and viability assays on day 11 postinfection. HBV DNA, HBsAg, and HBeAg were determined from the supernatants of infected PHH using bDNA assays (Affymetrix) and HBsAg or HBeAg chemiluminescence immunoassay kits (Autobio), as recommended by the manufacturers. Intracellular total HBV RNA mRNA and host mRNA levels were monitored by using the QuantiGene assays (Affymetrix) and probe sets that hybridized to the X region, which is common to all HBV transcripts, and the host β-actin mRNA, respectively.

[4] = Hepatocyte stability, human hepatocytes; assay type: in vitro ADME; conditions: 120 min incubation
Experimental: Following in vitro incubation for 120 min with human, mouse, or dog hepatocytes, >85% of the NVR 3-778 remained intact. […] The fewest number of metabolites was found following incubation with human hepatocytes, where 92% of the NVR 3-778 remained after a 120-min incubation.

HBV (GT C) = tested on: HBV (GT C); set-up: method as in PMID 29079518; conditions: cited from earlier work
[5] = 264 h, PHH from three donors, compound added with inoculum, 11 days, read-out: EC50, HBV DNA
[6] = 264 h, PHH from three donors, compound added with inoculum, 11 days, read-out: EC50, HBeAg
[7] = 264 h, PHH from three donors, compound added with inoculum, 11 days, read-out: EC50, HBsAg
[8] = 264 h, PHH from three donors, compound added with inoculum, 11 days, read-out: EC50, intracellular HBV RNA
[9] = 264 h, PHH from three donors, compound added with inoculum, 11 days, read-out: EC90, HBV DNA
[10] = 264 h, PHH from three donors, compound added with inoculum, 11 days, read-out: EC90, HBeAg
[11] = 264 h, PHH from three donors, compound added with inoculum, 11 days, read-out: EC90, HBsAg
[12] = 264 h, PHH from three donors, compound added with inoculum, 11 days, read-out: EC90, intracellular HBV RNA

SMILES	Effect on secreted HBV RNA, single drug (HBV [1]; HepG2.2.15 cells)	Effect on cell viability (HepG2.2.15 cells)	EC50 FC, I105V [2]	EC50 (HBV [3]; [5])	EC50 (HBV [3]; [6])	EC50 (HBV [3]; [7])	EC50 (HBV [3]; [8])	EC90 (HBV [3]; [9])	EC90 (HBV [3]; [10])	EC90 (HBV [3]; [11])	EC90 (HBV [3]; [12])	further results
Nc1ccn([C@@H]2CS[C@H](CO)O2)c(=O)n1 [LMV, lamivudine, reference compound]	increased the production of secreted HBV RNA	did not affect cell viability	0.84 fold	0.016 ± 0.01 µM	> 30 µM	> 30 µM	> 30 µM	0.066 ± 0.01 µM	> 30 µM	> 30 µM	> 30 µM	EC50 (HBV [1]; HepG2.2.15, values used as starting concentrations of the combination study, read-out: EC50 against HBV DNA replication in HepG2.2.15 cells): 0.15 µM
O=C(Nc1cc(F)c(F)c(F)c1)c1ccc(F)c(S(=O)(=O)N2CCC(O)CC2)c1 [NVR 3-778]	inhibited the production of secreted HBV RNA	did not affect cell viability	1.8 fold	0.81 ± 0.18 µM	4.5 ± 0.82 µM	4.8 ± 0.98 µM	3.7 ± 0.22 µM	5.4 ± 2 µM	8.9 ± 1.2 µM	10.2 ± 3 µM	11.6 ± 2.7 µM	EC50 (HBV [1]; HepG2.2.15 cells, QuantiGene assay, read-out: EC50, intracellular encapsidated pgRNA (mean)): 0.44 µM; EC50 (HBV [1]; HepG2.2.15 cells, branched DNA assay, read-out: EC50, intracellular encapsidated rcDNA (mean)): 0.34 µM; EC50 (HBV [1]; HepG2.2.15 cells, supernatant, read-out: EC50, secreted HBV DNA (mean)): 0.4 µM; EC50 (HBV [1]; HepG2.2.15 cells, supernatant, read-out: EC50, secreted HBV RNA (mean)): 0.6 µM; EC50 ([2]; Hepatitis B virus, HepG2, read-out: EC50, core variant I105V): 0.41 ± 0.11 µM; EC50 (HBV [3]; PHH, de novo infection, range over HBsAg, HBeAg, HBV RNA, read-out: EC50 values against the production of HBV antigens and intracellular HBV RNA): 3.7 to 4.8 µM; NVR 3-778 remaining intact [4]: > 85% and 92%; Antiviral activity compared with ETV (HBV (GT C); HBV-infected humanized mice, 405 mg/kg BID): antiviral activity similar to that of the nucleoside analog ETV; Reduction of serum HBV DNA and HBV RNA, combination with pegIFN versus NVR 3-778 alone, pegIFN alone or entecavir alone (HBV (GT C); HBV-infected humanized mice): greater reduction in both serum HBV DNA and HBV RNA levels; Effect on serum HBV DNA and HBV RNA levels (HBV (GT C); humanized mice infected with GT C HBV): effective at reducing both serum HBV DNA and HBV RNA levels; also recorded: significant reductions in HBV DNA and secreted HBV RNA levels
